Results taken from paper PMC7835894 (Molecules, 2021).

Tested on: Caco-2
Test: MTT antiproliferation assay
Format: cell-based, human
Details: Homo sapiens; Caco-2, MTT, 24 h, single agent, mean ± SEM
Description: The antiproliferation and cytotoxicity were assessed using 3-(4,5-dimethylthiazol-2-yl)-2,5-diphenyltetrazolium bromide (MTT, Serva) colorimetric assay. To investigate the antiproliferation, all cell lines were seeded at a density of 20,000 cells per well in 96-well plates and allowed to adhere overnight. […] These concentrations were prepared by diluting the stock solutions with serum-free culture media. The negative control cells were those treated with 0.1% DMSO solvent alone. The treated cells were handled in reduced light and maintained under standard culture growth conditions for 24 h. After the incubation period, MTT powder was prepared as a stock solution (5 mg/mL) and 20 μL of the MTT working reagent (final concentration 0.5 mg/mL) was added to each well. This was followed by incubation with MTT reagent for 4 h in a humidified atmosphere (37 °C, 5% CO2) with subsequent addition of 150 μL of DMSO solubilizing solvent and incubation for 20 min. The absorbance of solubilized violet formazan crystals was measured at 540 nm with Biotek 800 TS microplate reader. IC50 was calculated as the concentration of retinoid that produced 50% cell growth inhibition. For cytotoxicity assessment, WI-38 normal human fibroblast cells were used for the calculation of SI which is the ratio of IC50 retinoid (WI-38)/IC50 retinoid (cancer cell line).

IC50: 18.4 ± 0.6 µM
SMILES: O=c1[nH]cc(F)c(=O)[nH]1 [5-FU, 5-fluorouracil, reference compound]
